Data on 16 molecules can be found in patent US9382254B2, “Compounds and pharmaceutical compositions thereof for the treatment of cystic fibrosis” (Galapagos NV, priority 2013, dated 2016).

What all share (assay type): cell-based
One test deals with T1, CFTR-G1349D (Homo sapiens, UniProt P13569, G1349D).
T1 construct: expressed in transfected cells
The test can be described thus: YFP-halide influx assay for the CFTR-G1349D. The text has this:
(§1) The YFP halide influx assay measures the functionality of the cystic fibrosis Transmembrane Conductance regulator (CFTR) channels. The assay is used to evaluate the capacity of compounds to increase the channel opening of existing mutant CFTR channels in the membrane. It makes use of the observation that the yellow fluorescent protein (YFP) variant YFP H148Q, I152L, […] has its fluorescence substantially quenched by halide ions like Cl^− and I^−. (Galietta, Haggie, & Verkman, 2001)
(§2) For this purpose, HEK293-cells are seeded in 96 well plates. During seeding, the cells are reverse-transfected with plasmid vectors that direct the expression of the CFTR G551D mutant and of the YFP reporter. Cells are incubated at 37° C., 5% CO2 for 24 hours so as to allow for sufficient expression of the CFTR protein.
(§3) The I^−-induced quenching of fluorescence is recorded immediately after injection of I^− for 7 seconds. The capacity of a compound to increase the channel opening is directly correlated with the decrease in fluorescence, and is expressed as (1-(fluorescence after 7 seconds (F)/fluorescence before injection (F0))) and an EC50 can be derived from a (1-F/F0) vs compound concentration plot.
(§4) Similar YHA assays were developed for other channel gating defective or channel conductance defective CFTR mutants to determine effect of compound on channel activity. Examples of mutants are G178R, G1349D, S549N, R117H, R334W. This assay is also used for additional class I CFTR mutants, including G542X, W1282X; class II mutants including N1303K, and for class III mutants including S1251N.

The next test concerns the target T2, CFTR-G178R (Homo sapiens, UniProt P13569, G178R).
T2 construct: expressed in transfected cells
The test can be described thus: YFP-halide influx assay for the CFTR-G178R.
Text: as §1, §2, §3, §4

A further test deals with T3, CFTR-R117H (Homo sapiens, UniProt P13569, R117H).
T3 construct: expressed in transfected cells
T3 sequence (P13569 whole entry R117H): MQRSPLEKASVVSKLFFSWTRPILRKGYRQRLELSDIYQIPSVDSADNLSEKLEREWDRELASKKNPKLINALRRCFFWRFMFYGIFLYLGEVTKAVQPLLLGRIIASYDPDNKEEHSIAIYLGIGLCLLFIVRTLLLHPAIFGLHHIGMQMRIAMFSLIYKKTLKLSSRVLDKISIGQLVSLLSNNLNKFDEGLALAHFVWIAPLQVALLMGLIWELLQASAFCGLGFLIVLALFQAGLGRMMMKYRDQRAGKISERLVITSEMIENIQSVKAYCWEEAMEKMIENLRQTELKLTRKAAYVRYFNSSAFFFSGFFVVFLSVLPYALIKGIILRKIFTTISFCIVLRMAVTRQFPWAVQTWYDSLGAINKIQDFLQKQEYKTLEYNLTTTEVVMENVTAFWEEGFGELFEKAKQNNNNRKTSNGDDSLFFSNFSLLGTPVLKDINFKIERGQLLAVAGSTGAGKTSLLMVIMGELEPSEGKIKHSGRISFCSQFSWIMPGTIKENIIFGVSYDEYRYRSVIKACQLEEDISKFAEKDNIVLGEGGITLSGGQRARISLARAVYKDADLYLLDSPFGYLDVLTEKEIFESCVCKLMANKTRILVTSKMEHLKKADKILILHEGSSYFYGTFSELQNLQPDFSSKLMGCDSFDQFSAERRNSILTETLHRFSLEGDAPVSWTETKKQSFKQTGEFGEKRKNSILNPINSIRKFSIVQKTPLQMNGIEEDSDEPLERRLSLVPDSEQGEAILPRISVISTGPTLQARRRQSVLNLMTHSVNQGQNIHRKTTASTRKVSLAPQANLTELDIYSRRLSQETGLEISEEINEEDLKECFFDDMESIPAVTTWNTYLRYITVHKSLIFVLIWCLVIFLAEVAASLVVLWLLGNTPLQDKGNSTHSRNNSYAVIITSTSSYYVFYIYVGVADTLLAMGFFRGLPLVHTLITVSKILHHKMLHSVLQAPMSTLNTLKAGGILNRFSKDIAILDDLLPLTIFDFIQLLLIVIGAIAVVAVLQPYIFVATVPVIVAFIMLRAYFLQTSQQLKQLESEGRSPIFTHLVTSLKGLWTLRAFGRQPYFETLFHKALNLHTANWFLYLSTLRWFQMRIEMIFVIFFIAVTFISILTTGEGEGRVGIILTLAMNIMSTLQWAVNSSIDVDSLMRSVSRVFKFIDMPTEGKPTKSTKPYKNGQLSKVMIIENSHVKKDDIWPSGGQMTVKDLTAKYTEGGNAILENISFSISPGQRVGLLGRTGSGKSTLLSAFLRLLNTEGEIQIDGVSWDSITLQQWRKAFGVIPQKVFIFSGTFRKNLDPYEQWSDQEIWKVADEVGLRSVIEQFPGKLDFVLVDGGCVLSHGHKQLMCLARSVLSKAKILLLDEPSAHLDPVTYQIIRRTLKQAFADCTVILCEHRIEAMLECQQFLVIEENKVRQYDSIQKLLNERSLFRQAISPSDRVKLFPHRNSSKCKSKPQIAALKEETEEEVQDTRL
Kind of test: YFP-halide influx assay for the CFTR-R117H.
Text: as §1, §2, §3, §4

The target in the next test is T4, CFTR ΔF508 mutant (Homo sapiens, UniProt P13569, DEL508-508).
T4 construct: expressed in transfected cells; host or cells: CFBE41o- (adenoviral transduction)
T4 sequence (P13569 with tags, fused parts or gaps DEL508-508): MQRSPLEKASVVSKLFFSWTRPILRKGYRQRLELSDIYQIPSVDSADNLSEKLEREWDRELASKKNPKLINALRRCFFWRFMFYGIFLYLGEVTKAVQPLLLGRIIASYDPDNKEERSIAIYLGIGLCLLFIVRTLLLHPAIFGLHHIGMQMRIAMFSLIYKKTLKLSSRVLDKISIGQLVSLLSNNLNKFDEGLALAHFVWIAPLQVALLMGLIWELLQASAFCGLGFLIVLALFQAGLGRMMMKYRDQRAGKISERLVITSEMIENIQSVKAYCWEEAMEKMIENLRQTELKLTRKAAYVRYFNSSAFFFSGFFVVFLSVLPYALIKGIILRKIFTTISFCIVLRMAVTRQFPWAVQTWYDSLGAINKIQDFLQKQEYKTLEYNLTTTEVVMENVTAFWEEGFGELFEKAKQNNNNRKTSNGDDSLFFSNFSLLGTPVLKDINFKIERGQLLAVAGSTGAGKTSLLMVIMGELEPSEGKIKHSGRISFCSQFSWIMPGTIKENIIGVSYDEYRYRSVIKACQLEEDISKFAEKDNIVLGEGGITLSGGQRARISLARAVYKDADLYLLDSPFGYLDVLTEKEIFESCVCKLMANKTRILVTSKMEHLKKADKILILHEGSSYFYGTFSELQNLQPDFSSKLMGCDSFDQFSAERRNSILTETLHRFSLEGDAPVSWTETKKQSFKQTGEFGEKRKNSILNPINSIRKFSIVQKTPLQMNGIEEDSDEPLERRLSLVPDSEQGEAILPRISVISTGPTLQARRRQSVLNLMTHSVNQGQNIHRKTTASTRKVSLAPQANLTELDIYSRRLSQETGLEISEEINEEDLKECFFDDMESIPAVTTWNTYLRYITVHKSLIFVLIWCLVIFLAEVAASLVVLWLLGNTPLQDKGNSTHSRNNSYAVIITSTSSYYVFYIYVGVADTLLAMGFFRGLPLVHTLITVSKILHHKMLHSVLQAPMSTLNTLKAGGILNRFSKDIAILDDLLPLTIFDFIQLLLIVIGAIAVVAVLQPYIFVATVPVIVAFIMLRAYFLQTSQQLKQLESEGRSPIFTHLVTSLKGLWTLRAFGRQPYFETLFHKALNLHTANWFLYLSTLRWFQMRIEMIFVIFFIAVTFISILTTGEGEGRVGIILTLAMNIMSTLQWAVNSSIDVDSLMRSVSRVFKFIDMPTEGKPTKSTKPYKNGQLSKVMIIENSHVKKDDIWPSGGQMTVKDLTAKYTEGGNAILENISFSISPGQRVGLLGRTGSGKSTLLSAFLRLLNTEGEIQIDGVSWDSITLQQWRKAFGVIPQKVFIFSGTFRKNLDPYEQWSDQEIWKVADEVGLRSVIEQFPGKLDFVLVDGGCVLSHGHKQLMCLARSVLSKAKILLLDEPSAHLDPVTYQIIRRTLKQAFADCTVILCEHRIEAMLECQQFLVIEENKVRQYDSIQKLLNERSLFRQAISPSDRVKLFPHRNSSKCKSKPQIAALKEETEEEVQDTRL
The test can be described thus: YFP-halide influx assay for the CFTR-ΔF508 mutation (384 well, FDSS/μCell). Conditions: CFBE41o- cells, CFTR-ΔF508, 1×D-PBS, fluorescence after 36 seconds. The gist of the method:
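Potentiator read-out as 1−F/F0, F taken 36 s after iodide addition, EC50 fitted against compound concentration. Cells: CFBE41o- expressing ΔF508 CFTR plus halide-sensitive YFP via adenovirus, rescued by 27 °C for 24 h or 24 h modulator at 37 °C.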

The next test deals with T5, CFTR-S549N (Homo sapiens, UniProt P13569, S549N).
T5 construct: expressed in transfected cells
T5 sequence (P13569 whole entry S549N): as the sequence (P13569 whole entry R117H) above, with H117R, S549N counted along it
The test can be described thus: YFP-halide influx assay for the CFTR-S549N.
Text: as §1, §2, §3, §4

The next test deals with T6, CFTR G551D mutant (Homo sapiens, UniProt P13569, G551D).
T6 construct: expressed in transfected cells; host or cells: HEK293 (reverse transfection with plasmid)
T6 sequence (P13569 whole entry G551D): as the sequence (P13569 whole entry R117H) above, with H117R, G551D counted along it
The test can be described thus: YFP-halide influx assay for the CFTR-G551D mutation. The conditions noted are these: HEK293 cells, forskolin 10.67 μM. The gist of the method: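 HEK293 cells reverse-transfected with CFTR G551D and YFP H148Q/I152L/F47L halide sensor, expressed 24 h at 37 °C. Iodide-induced fluorescence quench recorded 7 s after I− injection; response = 1−F/F0, with EC50 from plot against compound concentration.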

pEC50: −log10 of the molar value. Like-named read-outs stand apart in the source and are kept apart here. Some results are limits rather than exact numbers.

T2 sequence (P13569 whole entry G178R): as the sequence (P13569 whole entry R117H) above, with H117R, G178R counted along it
T1 sequence (P13569 whole entry G1349D): as the sequence (P13569 whole entry R117H) above, with H117R, G1349D counted along it

Turning to `NC(=O)c1cc(S(=O)(=O)c2ccccc2OC(F)(F)F)sc1NC(=O)C1(CO)CC1` [Compound 320, 2-[(1-Hydroxymethyl-cyclopropanecarbonyl)-amino]-5-(2-trifluoromethoxy-benzenesulfonyl)-thiophene-3-carboxylic acid amide], the pEC50 (commonly −log10 of the EC50, conventionally taken in molar units) at CFTR-G1349D is 7.50; at CFTR-G178R it was 7.25; on CFTR-R117H, 7.06; on CFTR ΔF508 mutant, 7.89; at CFTR-S549N it was 6.88; on CFTR G551D mutant, 7.01.

With `CC(C)(O)C(=O)Nc1sc(S(=O)(=O)c2cc(F)ccc2Br)cc1C(N)=O` [Compound 323, 5-(2-Bromo-5-fluoro-benzenesulfonyl)-2-(2-hydroxy-2-methyl-propionylamino)-thiophene-3-carboxylic acid amide], the pEC50 on CFTR-G1349D is 6.34; on CFTR-G178R, 6.72; on CFTR-R117H, 6.47; at CFTR ΔF508 mutant, 8.03; at CFTR-S549N, 5.82; at CFTR G551D mutant, 6.64.

Take `CC(O)C(=O)Nc1sc(S(=O)(=O)c2ccc(F)cc2C(F)(F)F)cc1C(N)=O` (centres unmarked) [Compound 325, 5-[4-fluoro-2-(trifluoromethyl)phenyl] sulfonyl-2-(2-hydroxypropanoylamino) thiophene-3-carboxamide]: the pEC50 at CFTR-G1349D is 5.59; at CFTR-G178R it was 5.73; at CFTR-R117H, 6.10; at CFTR ΔF508 mutant, 7.95; at CFTR-S549N it was 5.67; on CFTR G551D mutant, 5.55.

Regarding `CC(O)C(=O)Nc1sc(S(=O)(=O)c2ccc(F)cc2Cl)cc1C(N)=O` (centres unmarked) [Compound 329, 5-(2-chloro-4-fluoro-phenyl) sulfonyl-2-(2-hydroxypropanoylamino) thiophene-3-carboxamide], the pEC50 is 5.69 on CFTR-G1349D; 5.77 on CFTR-G178R; 6.07 at CFTR-R117H; 7.63 at CFTR ΔF508 mutant; 5.57 on CFTR-S549N; 5.85 on CFTR G551D mutant.

Take `C[C@H](O)C(=O)Nc1sc(S(=O)(=O)c2ccc(OC(F)(F)F)cc2)cc1C(N)=O` [Compound 331, 2-[[(2S)-2-hydroxypropanoyl]amino]-5-[4-(trifluoromethoxy)phenyl] sulfonyl-thiophene-3-carboxamide]: the pEC50 on CFTR-G1349D is 6.93; at CFTR-G178R, 7.17; on CFTR-R117H, 7.02; on CFTR ΔF508 mutant it was 8.10; at CFTR-S549N, 6.28; at CFTR G551D mutant it was 6.25.

Regarding `CC(O)C(=O)Nc1sc(S(=O)(=O)c2cc(F)ccc2Cl)cc1C(N)=O` (centres unmarked) [Compound 333, 5-(2-chloro-5-fluoro-phenyl)sulfonyl-2-(2-hydroxypropanoylamino) thiophene-3-carboxamide], the pEC50 on CFTR-G1349D was 6.07; on CFTR-G178R, 6.21; on CFTR-R117H, 6.33; at CFTR ΔF508 mutant, 7.90; at CFTR-S549N, 6.26; on CFTR G551D mutant, 6.12.

Regarding `CC(O)C(=O)Nc1sc(S(=O)(=O)c2cc(F)ccc2CC(F)(F)F)cc1C(N)=O` (centres unmarked) [Compound 334, 5-[5-fluoro-2-(2,2,2-trifluoroethyl)phenyl] sulfonyl-2-(2-hydroxypropanoylamino) thiophene-3-carboxamide], the pEC50 on CFTR-G1349D is 7.32; on CFTR-G178R, 7.35; at CFTR-R117H it was 6.93; at CFTR ΔF508 mutant it was 8.43; on CFTR-S549N, 6.47; at CFTR G551D mutant it was 6.82.

Regarding `CC(C)(O)C(=O)Nc1sc(S(=O)(=O)c2cc(F)ccc2Cl)cc1C(N)=O` [Compound 337, 5-(2-chloro-5-fluoro-phenyl)sulfonyl-2-[(2-hydroxy-2-methyl-propanoyl)amino] thiophene-3-carboxamide], the negative logarithm of the EC50 (pEC50) on CFTR-G1349D is 7.31; at CFTR-G178R it was 7.57; at CFTR-R117H, 7.25; on CFTR ΔF508 mutant it was 8.26; at CFTR-S549N it was 6.97; at CFTR G551D mutant, 6.06.

As to `CC(CO)C(=O)Nc1sc(S(=O)(=O)c2ccc(F)cc2Cl)cc1C(N)=O` (centres unmarked) [Compound 360, 5-(2-chloro-4-fluoro-phenyl)sulfonyl-2-[(3-hydroxy-2-methyl-propanoyl)amino] thiophene-3-carboxamide], the pEC50 on CFTR-G1349D is 6.65; on CFTR-G178R, 6.91; at CFTR-R117H, 7.31; at CFTR ΔF508 mutant, 8.02; on CFTR-S549N, 6.73; on CFTR G551D mutant, 6.20.

As to `CC(C)(O)C(=O)Nc1sc(S(=O)(=O)c2ccc(C(F)(F)F)cn2)cc1C(N)=O` [Compound 363, 2-[(2-hydroxy-2-methyl-propanoyl)amino]-5-[[5-(trifluoromethyl)-2-pyridyl]sulfonyl]thiophene-3-carboxamide], the pEC50 at CFTR-G1349D was 6.49; on CFTR-G178R, 7.16; at CFTR-R117H, 7.04; on CFTR ΔF508 mutant it was 7.54; on CFTR-S549N, 6.66; at CFTR G551D mutant, 6.31.

For the molecule `CC(O)C(=O)Nc1sc(S(=O)(=O)c2ccc(C(F)(F)F)cc2F)cc1C(N)=O` (centres unmarked) [Compound 368, 5-[2-fluoro-4-(trifluoromethyl)phenyl]sulfonyl-2-(2-hydroxypropanoylamino) thiophene-3-carboxamide], the pEC50 is 7.00 on CFTR-G1349D; 7.49 at CFTR-G178R; 7.47 at CFTR-R117H; 7.76 on CFTR ΔF508 mutant; 7.26 on CFTR-S549N; 6.49 on CFTR G551D mutant.

In the case of `CC(CO)C(=O)Nc1sc(S(=O)(=O)c2ccc(C(F)(F)F)cc2)cc1C(N)=O` (centres unmarked) [Compound 369, 2-[(3-hydroxy-2-methyl-propanoyl)amino]-5-[4-(trifluoromethyl)phenyl] sulfonyl-thiophene-3-carboxamide], the pEC50 on CFTR-G1349D was 6.71; at CFTR-G178R, 7.13; at CFTR-R117H it was 6.85; on CFTR ΔF508 mutant, 7.93; on CFTR-S549N, 6.35; at CFTR G551D mutant it was 6.16.

Consider `COc1ccc(OC(F)(F)F)c(S(=O)(=O)c2cc(C(N)=O)c(NC(=O)C(C)(C)O)s2)c1` [Compound 373, 2-[(2-hydroxy-2-methyl-propanoyl)amino]-5-[5-methoxy-2-(trifluoromethoxy)phenyl]sulfonyl-thiophene-3-carboxamide], for which the pEC50 was 7.50 at CFTR-G1349D; 7.71 on CFTR-G178R; 7.34 on CFTR-R117H; 7.88 on CFTR ΔF508 mutant; 7.15 on CFTR-S549N; 7.00 on CFTR G551D mutant.

In the case of `CC(C)(O)C(=O)Nc1sc(S(=O)(=O)c2ccc(OC(F)(F)F)cn2)cc1C(N)=O` [Compound 374, 2-[(2-hydroxy-2-methyl-propanoyl)amino]-5-[[5-(trifluoromethoxy)-2-pyridyl]sulfonyl] thiophene-3-carboxamide], the pEC50 was 6.09 at CFTR-G1349D; 6.21 on CFTR-G178R; 6.44 on CFTR-R117H; 7.23 at CFTR ΔF508 mutant; 5.74 at CFTR-S549N; 5.88 on CFTR G551D mutant.

Turning to `CC(C)(O)C(=O)Nc1sc(S(=O)(=O)c2ccc(OC(F)(F)F)cc2F)cc1C(N)=O` [Compound 375, 5-[2-fluoro-4-(trifluoromethoxy)phenyl] sulfonyl-2-[(2-hydroxy-2-methyl-propanoyl)amino] thiophene-3-carboxamide], the pEC50 on CFTR-G1349D was 6.84; on CFTR-G178R it was 7.03; on CFTR-R117H, 6.60; at CFTR ΔF508 mutant it was 8.12; at CFTR-S549N it was 6.70; at CFTR G551D mutant, 6.17.

Turning to `Cc1c(S(=O)(=O)c2ccc(OC(F)(F)F)cc2)sc(NC(=O)C(C)(C)O)c1C(N)=O` [Compound 437, 2-[(2-hydroxy-2-methyl-propanoyl)amino]-4-methyl-5-[4-(trifluoromethoxy)phenyl]sulfonyl-thiophene-3-carboxamide], the pEC50 was less than 6.00 at CFTR-G1349D (class symbol); 6.58 at CFTR-R117H; 8.20 on CFTR ΔF508 mutant; 6.92 at CFTR-S549N; less than 6.00 at CFTR G551D mutant (class symbol).
